In PubChem BioAssay (NCI) one finds GI50 and TGI data, which are given here for eight compounds.

Test systems include HOP-62 NSCLC; MCF7 breast; MOLT-4 leukemia; NCI-H522 lung; SF-268 CNS; SF-295 CNS; UACC-257 melanoma; A549 NSCLC; SNB-19 CNS; U251 CNS.
Holding throughout (experiment): DTP human tumour cell line panel, 48 h

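Tested at 5 concentrations; 48 h exposure; 96-well plates; endpoints linearly interpolated, else capped at highest concentration. Abbreviation: GI50, concentration required for 50% inhibition of growth. TGI: total growth inhibition.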

For orientation: GI50 means the concentration giving 50% growth inhibition. The term TGI denotes the concentration at which net growth stops. As to `C[C@]12C[C@H](CCCCCCNCCOC(=O)NCCCc3ccc(N(CCCl)CCCl)cc3)C3=C4CCC(=O)C=C4CCC3C1CC[C@@H]2O` (stereo not given in full), the GI50 in the experiment on HOP-62 NSCLC is 2.2 µM; in the experiment on MCF7 breast, 300 nM; with MOLT-4 leukemia it was 340 nM; in the experiment on NCI-H522 lung, 1630 nM; in the experiment on SF-268 CNS, 1200 nM; in the experiment on SF-295 CNS it was 2070 nM. The GI50 with UACC-257 melanoma is 1690 nM. For the same compound, the concentration for total growth inhibition (TGI) with HOP-62 NSCLC was 10.4 µM; in the experiment on MCF7 breast it was 3.05 µM; in the experiment with MOLT-4 leukemia it was 1.56 µM; in the experiment on NCI-H522 lung it was 3.18 µM; in the experiment with SF-268 CNS it was 3.86 µM; in the experiment on SF-295 CNS, greater than 100 µM. In the experiment on UACC-257 melanoma, this compound gave a concentration for total growth inhibition (TGI) of 3.21 µM.

`CCOC(=O)/C(C=Nc1ccc(-c2nc3ccccc3[nH]2)cc1)=C(/C)O`: the GI50 with A549 NSCLC is 12 µM; with HOP-62 NSCLC it was 19.7 µM; with MCF7 breast it was 11700 nM; in the experiment on NCI-H522 lung, 10700 nM; with SF-268 CNS it was 11700 nM; in the experiment on SF-295 CNS, 16400 nM. In addition, the GI50 was 32.7 µM in the experiment on SNB-19 CNS, 8740 nM in the experiment with U251 CNS and 11500 nM in the experiment with UACC-257 melanoma. For the same compound, the total growth inhibition concentration (TGI) was 29.9 µM with A549 NSCLC; greater than 50 µM with HOP-62 NSCLC; greater than 50 µM with MCF7 breast; 26.4 µM with NCI-H522 lung; 34.5 µM in the experiment on SF-268 CNS; greater than 50 µM in the experiment on SF-295 CNS. The values for the total growth inhibition concentration (TGI) in the experiment with SNB-19 CNS, with U251 CNS and with UACC-257 melanoma were greater than 50 µM, 15.6 µM and 28.3 µM, respectively.

With `CCCCCCCCNc1cc2c3c(c1)CCCN3CCC2`, the GI50 with A549 NSCLC is 4.26 µM; with HOP-62 NSCLC it was 4.04 µM; in the experiment on MCF7 breast, 2980 nM; with MOLT-4 leukemia, 1090 nM; with NCI-H522 lung it was 594 nM; with SF-268 CNS it was 2040 nM. The GI50 is 2310 nM in the experiment on SF-295 CNS, 3.29 µM in the experiment with SNB-19 CNS, 390 nM in the experiment on U251 CNS and 1030 nM in the experiment with UACC-257 melanoma. Further, the TGI with A549 NSCLC was 19.3 µM; with HOP-62 NSCLC, 18.3 µM; with MCF7 breast it was 13 µM; in the experiment on MOLT-4 leukemia, greater than 100 µM; in the experiment with NCI-H522 lung, 6.47 µM; in the experiment on SF-268 CNS, 12.8 µM. The TGI was determined as 10.8 µM in the experiment with SF-295 CNS, 19.4 µM in the experiment on SNB-19 CNS, 15.1 µM with U251 CNS and 6.71 µM in the experiment on UACC-257 melanoma.

On to `OC(Cc1ccncc1)C(Cl)(Cl)Cl` (stereo not given), for which the GI50 is greater than 100 µM in the experiment with A549 NSCLC; greater than 100 µM with HOP-62 NSCLC; greater than 100000 nM in the experiment on MCF7 breast; 98.8 nM with MOLT-4 leukemia; greater than 100000 nM in the experiment with NCI-H522 lung; greater than 100000 nM in the experiment with SF-268 CNS. Further, the GI50 with SF-295 CNS was 7830 nM; in the experiment on SNB-19 CNS, greater than 100 µM; with U251 CNS, greater than 100000 nM; with UACC-257 melanoma, greater than 100000 nM. In addition, the total growth inhibition concentration (TGI) with A549 NSCLC, with HOP-62 NSCLC, in the experiment on MCF7 breast, with MOLT-4 leukemia, in the experiment on NCI-H522 lung and with SF-268 CNS was greater than 100 µM in each case. Also, the TGI in the experiment on SF-295 CNS, in the experiment with SNB-19 CNS, in the experiment on U251 CNS and in the experiment with UACC-257 melanoma was greater than 100 µM throughout.

For `Oc1c(-c2nnc(-c3ccccc3Cl)o2)sc2nnc(-c3ccccc3)c(-c3ccccc3)c12`, the GI50 with A549 NSCLC is 4.31 µM; in the experiment on HOP-62 NSCLC, 4.99 µM; with MCF7 breast it was 3840 nM; in the experiment with MOLT-4 leukemia it was 3880 nM; in the experiment on NCI-H522 lung, 3590 nM; in the experiment on SF-268 CNS it was 6270 nM. In addition, the GI50 in the experiment with SF-295 CNS is 1890 nM; in the experiment on SNB-19 CNS, 4.37 µM; in the experiment with U251 CNS, 2310 nM; in the experiment with UACC-257 melanoma, 8090 nM. Further, the concentration for total growth inhibition (TGI) with A549 NSCLC is 61.5 µM; in the experiment on HOP-62 NSCLC it was greater than 100 µM; with MCF7 breast, greater than 100 µM; in the experiment on MOLT-4 leukemia, greater than 100 µM; with NCI-H522 lung it was 23.5 µM; with SF-268 CNS it was greater than 100 µM. Further, the TGI in the experiment on SF-295 CNS was 15.6 µM; with SNB-19 CNS, greater than 100 µM; in the experiment on U251 CNS, greater than 100 µM; in the experiment with UACC-257 melanoma, 62.7 µM.

Take `O.O.[NH-]C1(C(=O)O)CCCC1.[NH-]C1(C(=O)O)CCCC1.[Ni+2]`: the TGI in the experiment on A549 NSCLC, with HOP-62 NSCLC, in the experiment with MCF7 breast, in the experiment with MOLT-4 leukemia, in the experiment on NCI-H522 lung and in the experiment with SF-268 CNS was greater than 100 µM in each case. The TGI in the experiment on SF-295 CNS, in the experiment with SNB-19 CNS, in the experiment with U251 CNS and in the experiment with UACC-257 melanoma was greater than 100 µM each time.

As to `C=C1C(=O)O[C@H]2[C@H]1CC/C(COC(=O)CSCSCC(=O)OC/C1=C/CC[C@@]3(C)O[C@H]3[C@H]3OC(=O)C(=C)[C@@H]3CC1)=C\CC[C@@]1(C)O[C@@H]21`, the GI50 with A549 NSCLC is 2.44 µM; in the experiment with HOP-62 NSCLC, 2.59 µM; with MCF7 breast, 642 nM; in the experiment with MOLT-4 leukemia it was 505 nM; in the experiment with NCI-H522 lung, 1480 nM; in the experiment on SF-268 CNS it was 1790 nM. Also, the GI50 with SF-295 CNS was 1850 nM; in the experiment on SNB-19 CNS it was 2.44 µM; in the experiment with U251 CNS it was 1700 nM; in the experiment with UACC-257 melanoma it was 1890 nM. In addition, the total growth inhibition concentration (TGI) was found to be 6.23 µM in the experiment on A549 NSCLC; 8.38 µM in the experiment on HOP-62 NSCLC; 2.25 µM in the experiment with MCF7 breast; 3.09 µM in the experiment on MOLT-4 leukemia; 3.2 µM in the experiment on NCI-H522 lung; 4.31 µM in the experiment with SF-268 CNS. Moreover, the TGI in the experiment with SF-295 CNS stood at 4.46 µM; with SNB-19 CNS it was 5.99 µM; in the experiment with U251 CNS it was 3.85 µM; with UACC-257 melanoma, 4.67 µM.

With `CCOc1cccc(/C=N/N=C2\C(=O)Nc3c(Cl)cc(Cl)cc32)c1O`, the concentration for total growth inhibition (TGI) in the experiment with A549 NSCLC, in the experiment with HOP-62 NSCLC, in the experiment with MCF7 breast, in the experiment on MOLT-4 leukemia, in the experiment on SF-295 CNS and in the experiment with SNB-19 CNS was greater than 100 µM each time. For the same compound, the TGI with U251 CNS and with UACC-257 melanoma was greater than 100 µM throughout.
